Like-named read-outs stand apart in the source and are kept apart here.

Holding throughout (assay type): cell-based, Hepatitis C virus
Experiment [1] concerns HCV genotype 1a H77 strain subgenomic luciferase replicon. Description: HCV replicon assay, genotype 1a. The procedure:
(§1) The HCV luciferase replicon assay measures the ability of a test compound to inhibit HCV replication in cell culture after 3 days of treatment in a human hepatoma cell line (Huh-7) bearing an HCV replicon containing a luciferase-neomycin phosphotransferase fusion gene. The inhibition of HCV replication was measured by quantification of luciferase protein expression. Briefly, Huh-7 cells containing either the HCV genotype 1a H77 strain or genotype 1b Con1 strain subgenomic luciferase replicon (H1a-luc or Zluc, respectively) were grown in DMEM containing glucose, L-glutamine and sodium pyruvate, 10% fetal bovine serum (FBS), 100 IU/mL penicillin, 100 μg/mL streptomycin, 2 mM GlutaMAX, non-essential amino acids and 0.25 (H1a-luc) or 0.5 (Zluc) mg/mL G418. GlutaMAX was obtained from Invitrogen, Corp.; all other media reagents were obtained from Mediatech, Inc. For dose-response testing, the cells were seeded in 96-well plates at 1×10^4 (H1a-luc) or 7.5×10^3 (Zluc) cells/well in a volume of 50 μL, and incubated at 37° C./5% CO2. Three hours after plating, 50 μL of ten 5-fold serial dilutions of compound were added, and cell cultures were incubated at 37° C./5% CO2 for 72 hours. In all cases, Huh-7 cells lacking the HCV replicon served as negative control. To assess luciferase expression, the media/compound was removed from the plates and ONE-glo Luciferase assay reagent (Promega) was added to each well. The assay plates were shaken for 3 minutes at room temperature and luciferase activity for each well was measured with a 1 sec read time on the Victor^3V multilabel counter using a 700 nm cut-off filter (Perkin Elmer). EC50 values were calculated from dose response curves from the resulting best-fit equations determined by Microsoft Excel and XLfit 4.1 software.

The subject of experiment [2] is HCV 1aY93H mutant replicon. Description: HCV replicon assay, genotype 1a Y93H mutant. As for the experimental part:
General procedure: The luciferase replicon transient transfection assay measures the ability of a test compound to inhibit the replication of a transiently-transfected HCV luciferase-bearing wild-type or mutant replicon in cured human hepatoma cells (Huh7.5). The inhibition of HCV replication was measured by quantification of luciferase protein expression. This assay has been validated using a panel of genotype 1a and 1b replicons bearing mutations known to be associated with resistance to BMS-790052. Briefly, subconfluent Huh7.5 cells were electroporated with 10 μg of wild-type or mutant luciferase-bearing HCV replicon RNA. The cells were then seeded in 96-well opaque white plates at 3×10^4 cells/well in 150 μL/well and incubated for 4 hrs at 37° C./5% CO2. Ten 1:5 serial dilutions of each test compound were made in media (DMEM containing glucose, L-glutamine and sodium pyruvate, 10% fetal bovine serum, 100 IU/mL penicillin, 100 μg/mL streptomycin, 2 mM GlutaMAX, and 1×MEM non-essential amino acids (Mediatech, Inc. and Invitrogen Corp.)) at concentrations that were 4× higher than the final concentrations to be tested and 50 μL/well was added to the transfected cells. Untreated, mock-transfected cells served as a negative control of luciferase expression. The plates were incubated at 37° C./5% CO2 for 4 days whereupon the media was removed and 50 μL of ONE-glo luciferase substrate (Promega) was added to each well. The plates were agitated on a rotating platform at room temperature for 3 min and read in a Victor^3V microplate reader (Perkin-Elmer) using a 700 nm cut-off filter with a 1 sec read time. EC50 values were calculated from dose response curves from the resulting best-fit equations determined by Microsoft Excel and XLfit 4.1 software.

Experiment [3] relates to HCV 2b. Description: HCV replicon assay, genotype 2b. Particulars: Hepatitis C virus, read-out: 2b IC50 (nM), HCV genotype 2b.
The subject of experiment [4] is HCV genotype 3a NS5A within the 1b-replicon. Description: HCV replicon assay, genotype 3a (NS5A intergenotypic stable cell line).
Source text: The nucleotide sequences of the NS5A region of genotype 2a (GenBank Accession # AB047639), genotype 3a (GenBank Accession # D17763), and genotype 4a (GenBank Accession # DQ418788) were synthesized by an outside vendor. The NS5A region of each of these genotypes included the first 11 amino acids of the protease recognition sequence of genotype 1b, as well as the last 10 amino acids of genotype 1b. The NS5A gene cassettes were excised with site specific restriction endonucleases and ligated into a ZS11-luciferase genotype 1b backbone (backbone contains the genotype 1b NS3 protease, NS4a, NS4b, and NS5b coding regions) with similarly cut restriction enzyme sites. Thus, the newly constructed plasmid contains a genotype 2a-, 3a- or 4a-specific NS5A gene within the 1b-replicon.
These new intergenotypic plasmids were used to establish stable cell lines. RNA was generated from the NS5A intergenotypic plasmids and used in conjunction with a lipofectin reagent to transfect a cured Huh7 cell line. Transfected cells were selected for with G418. After selection has occurred the stable cell lines were propagated, tested for luciferase activity, and RT-PCR with genotype specific primers (either 1a, 2a, 3a, or 4a). Stable cell lines containing the intergenotypic replicon were then fully sequenced and analyzed for proper expression of NS3, NS5A and NS5B proteins.
Drug titration analysis was performed using the luciferase replicon assay described herein.
as §1

Where [5] appears, read: Hepatitis C virus, read-out: 1a IC50 (nM), HCV genotype 1a.
The mark [6] stands for this setting: Hepatitis C virus, read-out: 1aY93H IC50 (nM), HCV genotype 1a, Y93H mutant.

For `CC(C)(C)OC(=O)N1CC(F)C[C@H]1c1ncc(-c2ccc3c(ccc4oc5cc(-c6cnc([C@@H]7C[C@@H](F)CN7C(=O)OC(C)(C)C)[nH]6)ccc5c(=O)c43)c2)[nH]1` (stereo in doubt) [Compound 22, di-tert-butyl (2S,4R,2′S,4′S)-2,2′-[(12-oxo-12H-benzo[a]xanthene-3,9-diyl)bis(1H-imidazole-5,2-diyl)]bis(4-fluoropyrrolidine-1-carboxylate)], the IC50 in experiment [1] (setting [5]) turned out to be 291 nM; in experiment [2] (setting [6]), 717 nM.
For `CCN(CC)[C@@H](C(=O)N1C[C@H](F)C[C@H]1c1ncc(-c2ccc3c(ccc4oc5cc(-c6cnc([C@@H]7C[C@@H](F)CN7C(=O)[C@@H](c7ccccc7)N(CC)CC)[nH]6)ccc5c(=O)c43)c2)[nH]1)c1ccccc1` [Compound 31, 3,9-bis(2-{(2S,4R)-1-[(2R)-2-(diethylamino)-2-phenylacetyl]-4-fluoropyrrolidin-2-yl}-1H-imidazol-5-yl)-12H-benzo[a]xanthen-12-one], the IC50 in experiment [1] (setting [5]) turned out to be 0.31 nM; in experiment [3], 797 nM; in experiment [2] (setting [6]), 506 nM; in experiment [4] (Hepatitis C virus, read-out: 3a IC50 (nM), HCV genotype 3a) it was 0.0262 nM.
Consider `COC(=O)N[C@H](C(=O)N1CCC[C@H]1c1ncc(-c2ccc3c(c2)C(C)c2ccc4cc(-c5cnc([C@@H]6CCCN6C(=O)[C@@H](NC(=O)OC)C(C)C)[nH]5)ccc4c2O3)[nH]1)C(C)C` (stereo partly drawn) [Compound 4, methyl [(1S)-1-({(2S)-2-[5-(3-{2-[(2S)-1-{(2S)-2-[(methoxycarbonyl)amino]-3-methylbutanoyl}pyrrolidin-2-yl]-1H-imidazol-5-yl}-7-methyl-7H-benzo[c]xanthen-9-yl)-1H-imidazol-2-yl]pyrrolidin-1-yl}carbonyl)-2-methylpropyl]carbamate], for which the results for the IC50 in experiment [1] (setting [5]) and in experiment [2] (setting [6]) were 0.0057 nM and 48.8 nM, respectively.
For the molecule `CC(C)(C)NC(=O)N1CC(F)C[C@H]1c1ncc(-c2ccc3c(F)c4oc5ccc(-c6cnc([C@@H]7CC(F)CN7C(=O)NC(C)(C)C)[nH]6)cc5c(=O)c4cc3c2)[nH]1` (stereo in doubt) [Compound 23, (2S,4S,2′S,4′S)-2,2′-[(6-fluoro-12-oxo-12H-benzo[b]xanthene-2,9-diyl)bis(1H-imidazole-5,2-diyl)]bis(N-tert-butyl-4-fluoropyrrolidine-1-carboxamide)], the IC50 in experiment [1] (setting [5]) is 53.5 nM; in experiment [3] it was ≥ 1000 nM; in experiment [2] (setting [6]), 436 nM.
Consider `COC(=O)N[C@H](C(=O)N1CCC[C@@H]1c1ncc(-c2ccc3oc4c(ccc5cc(-c6cnc([C@H]7CCCN7C(=O)[C@H](NC(=O)OC)C(C)C)[nH]6)ccc54)c(=O)c3c2)[nH]1)C(C)C` [Compound 1, methyl [(1R)-1-({(2R)-2-[5-(9-{2-[(2R)-1-{(2S)-2-[(methoxycarbonyl)amino]-3-methylbutanoyl}pyrrolidin-2-yl]-1H-imidazol-5-yl}-7-oxo-7H-benzo[c]xanthen-3-yl)-1H-imidazol-2-yl]pyrrolidin-1-yl}carbonyl)-2-methylpropyl]carbamate], for which the IC50 was found to be 0.0204 nM in experiment [1] (setting [5]) and 66 nM in experiment [2] (setting [6]).
Taken in the same sequence, the figures for `O=c1c2ccc(-c3cnc([C@@H]4CC(F)CN4)[nH]3)cc2oc2ccc3cc(-c4cnc([C@@H]5C[C@@H](F)CN5)[nH]4)ccc3c12` (stereo in doubt) [Compound 18, 3-{2-[(2S,4R)-4-fluoropyrrolidin-2-yl]-1H-imidazol-5-yl}-9-{2-[(2S,4S)-4-fluoropyrrolidin-2-yl]-1H-imidazol-5-yl}-12H-benzo[a]xanthen-12-one] were 208 nM and 147 nM.
The like results for `CC(C)(C)OC(=O)N1CC(F)C[C@H]1c1ncc(-c2ccc3c(F)c4oc5ccc(-c6cnc([C@@H]7CC(F)CN7C(=O)OC(C)(C)C)[nH]6)cc5c(=O)c4cc3c2)[nH]1` (stereo in doubt) [Compound 24, di-tert-butyl (2S,4S,2′S,4′S)-2,2′-[(6-fluoro-12-oxo-12H-benzo[b]xanthene-2,9-diyl)bis(1H-imidazole-5,2-diyl)]bis(4-fluoropyrrolidine-1-carboxylate)] were, in that order, 425 nM and 2460 nM.
For the molecule `COC(=O)N[C@H](C(=O)N1CCC[C@H]1c1ncc(-c2ccc3c(c2)Oc2ccc4cc(-c5cnc([C@@H]6CCCN6C(=O)[C@@H](NC(=O)OC)C(C)C)[nH]5)ccc4c2C3(C)C)[nH]1)C(C)C` [Compound 7, methyl [(1S)-1-({(2S)-2-[5-(3-{2-[(2S)-1-{(2S)-2-[(methoxycarbonyl)amino]-3-methylbutanoyl}pyrrolidin-2-yl]-1H-imidazol-5-yl}-12,12-dimethyl-12H-benzo[a]xanthen-9-yl)-1H-imidazol-2-yl]pyrrolidin-1-yl}carbonyl)-2-methylpropyl]carbamate], the IC50 in experiment [1] (setting [5]) stood at 0.0029 nM; in experiment [3], 11 nM; in experiment [2] (setting [6]), 17.8 nM.
As to `O=c1c2cc(-c3cnc([C@@H]4CC(F)CN4)[nH]3)ccc2oc2c(F)c3ccc(-c4cnc([C@@H]5CC(F)CN5)[nH]4)cc3cc12` (stereo in doubt) [Compound 19, 6-fluoro-2,9-bis{2-[(2S,4S)-4-fluoropyrrolidin-2-yl]-1H-imidazol-5-yl}-12H-benzo[b]xanthen-12-one], the IC50 in experiment [1] (setting [5]) amounted to 745 nM; in experiment [2] (setting [6]), 1390 nM.
As for `CC(C)(C)NC(=O)N1CC(F)C[C@H]1c1ncc(-c2ccc3c(ccc4oc5cc(-c6cnc([C@@H]7C[C@@H](F)CN7C(=O)NC(C)(C)C)[nH]6)ccc5c(=O)c43)c2)[nH]1` (stereo in doubt) [Compound 21, (2S,4R,2′S,4′S)-2,2′-[(12-oxo-12H-benzo[a]xanthene-3,9-diyl)bis(1H-imidazole-5,2-diyl)]bis(N-tert-butyl-4-fluoropyrrolidine-1-carboxamide)], the IC50 stood at 63.1 nM in experiment [1] (setting [5]), 505 nM in experiment [3] and 96.2 nM in experiment [2] (setting [6]).
Regarding `CCC1c2ccc(-c3cnc([C@@H]4CCCN4C(=O)[C@@H](NC(=O)OC)C4CCOCC4)[nH]3)cc2Oc2ccc3cc(-c4cnc([C@@H]5CCCN5C(=O)[C@@H](NC(=O)OC)C5CCOCC5)[nH]4)ccc3c21` (single isomer, unassigned) [Compound 14], the IC50 in experiment [1] (read-out: 1a IC50, HCV genotype 1a) is 0.0042 nM; in experiment [2] (read-out: 1aY93H IC50, HCV genotype 1a, Y93H mutant) it was 0.221 nM; in experiment [4] (read-out: 3a IC50, HCV genotype 3a), 0.034 nM.

The values are drawn from patent publication US10787441B2, “Hepatitis C virus inhibitors” (priority 2016, dated 2020).
